Experimental data from ChEMBL document CHEMBL3885861, “Open TG-GATES”.

Organism: Rattus norvegicus
Experiment: Open TG-GATES - Regimen: Daily Repeat
Assay type: toxicity, organism-based, Sprague-Dawley
Design: regimen Daily Repeat, gender Male, age 6 weeks
Settings: in vivo, po, 0 mg/kg, route gavage, dose level Control; for APTT / Bas / Eos / Fbg / Hb / Ht / Lym / MCH / MCHC / MCV / Mono / Neu / PT / Plat / RBC / Ret / WBC: tissue Blood; for KIDNEY_L / KIDNEY_R / KIDNEY_TOTAL: tissue Kidney; for LIVER: tissue Liver; for A/G / ALP / ALT / AST / BUN / CRE / Ca / Cl / DBIL / GLC / IP / K / LDH / Na / PL / RALB / TBIL / TC / TG / TP / gamma-GTP: tissue Plasma

Structure (SMILES): CC(C)(S)[C@@H](N)C(=O)O [PENICILLAMINE]
- TERMINAL_BW (72 h, time 3 day): 235.9 g
- APTT (72 h, time 3 day): 15.9 s
- Bas (72 h, time 3 day): 0.2%
- Eos (72 h, time 3 day): 0.6%
- Fbg (72 h, time 3 day): 305 mg/dL
- Hb (72 h, time 3 day): 13.7 g/dL
- Ht (72 h, time 3 day): 41.9%
- Lym (72 h, time 3 day): 75.8%
- MCH (72 h, time 3 day): 21.1 pg
- MCHC (72 h, time 3 day): 32.7%
- MCV (72 h, time 3 day): 64.6 fL
- Mono (72 h, time 3 day): 3%
- Neu (72 h, time 3 day): 19.6%
- PT (72 h, time 3 day): 13.8 s
- Plat (72 h, time 3 day): 131.2 x10_4/uL
- RBC (72 h, time 3 day): 648.8 x10_4/ul
- Ret (72 h, time 3 day): 7.1%
- WBC (72 h, time 3 day): 113.2 x10_2/uL
- KIDNEY_L (72 h, time 3 day): 0.9 g
- KIDNEY_R (72 h, time 3 day): 0.9 g
- KIDNEY_TOTAL (72 h, time 3 day): 1.9 g
- LIVER (72 h, time 3 day): 11.2 g
- A/G (72 h, time 3 day): 0.9
- ALP (72 h, time 3 day): 1527 IU/L
- ALT (72 h, time 3 day): 43.4 IU/L
- AST (72 h, time 3 day): 69 IU/L
- BUN (72 h, time 3 day): 14.6 mg/dL
- CRE (72 h, time 3 day): 0.2 mg/dL
- Ca (72 h, time 3 day): 11.1 mg/dL
- Cl (72 h, time 3 day): 106.2 meq/L
- DBIL (72 h, time 3 day): 0.014 mg/dL
- GLC (72 h, time 3 day): 177.8 mg/dL
- IP (72 h, time 3 day): 6.8 mg/dL
- K (72 h, time 3 day): 4.1 meq/L
- LDH (72 h, time 3 day): 84.4 IU/L
- Na (72 h, time 3 day): 144.2 meq/L
- PL (72 h, time 3 day): 171.8 mg/dL
- RALB (72 h, time 3 day): 2.8 g/dL
- TBIL (72 h, time 3 day): 0.018 mg/dL
- TC (72 h, time 3 day): 90.2 mg/dL
- TG (72 h, time 3 day): 118.8 mg/dL
- TP (72 h, time 3 day): 5.8 g/dL
- gamma-GTP (72 h, time 3 day): 1 IU/L
- TERMINAL_BW ([…], time 7 day): 275.3 g
- TERMINAL_BW ([…], time 14 day): 335.9 g
- TERMINAL_BW ([…], time 28 day): 405.5 g
- APTT ([…], time 7 day): 17.9 s
- Bas ([…], time 7 day): 0%
- Eos ([…], time 7 day): 1%
- Fbg ([…], time 7 day): 320.4 mg/dL
- Hb ([…], time 7 day): 14.2 g/dL
- Ht ([…], time 7 day): 43.2%
- Lym ([…], time 7 day): 72.8%
- MCH ([…], time 7 day): 21 pg
- MCHC ([…], time 7 day): 32.8%
- MCV ([…], time 7 day): 64.1 fL
- Mono ([…], time 7 day): 2.8%
- Neu ([…], time 7 day): 22.4%
- PT ([…], time 7 day): 13.9 s
- Plat ([…], time 7 day): 121.1 x10_4/uL
- RBC ([…], time 7 day): 674.8 x10_4/ul
- Ret ([…], time 7 day): 5.9%
- WBC ([…], time 7 day): 98.3 x10_2/uL
- APTT ([…], time 14 day): 19.2 s
- Bas ([…], time 14 day): 0%
- Eos ([…], time 14 day): 1.2%
- Fbg ([…], time 14 day): 292.4 mg/dL
- Hb ([…], time 14 day): 14.8 g/dL
- Ht ([…], time 14 day): 43.7%
- Lym ([…], time 14 day): 80.4%
- MCH ([…], time 14 day): 20.4 pg
- MCHC ([…], time 14 day): 33.9%
- MCV ([…], time 14 day): 60.2 fL
- Mono ([…], time 14 day): 2%
- Neu ([…], time 14 day): 15.8%
- PT ([…], time 14 day): 14.2 s
- Plat ([…], time 14 day): 122.3 x10_4/uL
- RBC ([…], time 14 day): 724.8 x10_4/ul
- Ret ([…], time 14 day): 4.5%
- WBC ([…], time 14 day): 90.4 x10_2/uL
- APTT ([…], time 28 day): 18.4 s
- Bas ([…], time 28 day): 0%
- Eos ([…], time 28 day): 1.4%
- Fbg ([…], time 28 day): 300.8 mg/dL
- Hb ([…], time 28 day): 15.6 g/dL
- Ht ([…], time 28 day): 45.4%
- Lym ([…], time 28 day): 79.2%
- MCH ([…], time 28 day): 19.8 pg
- MCHC ([…], time 28 day): 34.2%
- MCV ([…], time 28 day): 58 fL
- Mono ([…], time 28 day): 2.2%
- Neu ([…], time 28 day): 16.2%
- PT ([…], time 28 day): 14.1 s
- Plat ([…], time 28 day): 103.8 x10_4/uL
- RBC ([…], time 28 day): 783.8 x10_4/ul
- Ret ([…], time 28 day): 2.6%
- WBC ([…], time 28 day): 93.7 x10_2/uL
- KIDNEY_L ([…], time 7 day): 1.1 g
- KIDNEY_R ([…], time 7 day): 1.1 g
- KIDNEY_TOTAL ([…], time 7 day): 2.2 g
- KIDNEY_L ([…], time 14 day): 1.3 g
- KIDNEY_R ([…], time 14 day): 1.3 g
- KIDNEY_TOTAL ([…], time 14 day): 2.6 g
- KIDNEY_L ([…], time 28 day): 1.4 g
- KIDNEY_R ([…], time 28 day): 1.4 g
- KIDNEY_TOTAL ([…], time 28 day): 2.8 g
- LIVER ([…], time 7 day): 13 g
- LIVER ([…], time 14 day): 15.3 g
- LIVER ([…], time 28 day): 16.3 g
- A/G ([…], time 7 day): 0.9
- ALP ([…], time 7 day): 1428 IU/L
- ALT ([…], time 7 day): 45.4 IU/L
- AST ([…], time 7 day): 68.6 IU/L
- BUN ([…], time 7 day): 15 mg/dL
- CRE ([…], time 7 day): 0.2 mg/dL
- Ca ([…], time 7 day): 10.9 mg/dL
- Cl ([…], time 7 day): 105.2 meq/L
- DBIL ([…], time 7 day): 0.018 mg/dL
- GLC ([…], time 7 day): 189.8 mg/dL
- IP ([…], time 7 day): 6.6 mg/dL
- K ([…], time 7 day): 4 meq/L
- LDH ([…], time 7 day): 71.6 IU/L
- Na ([…], time 7 day): 142.2 meq/L
- PL ([…], time 7 day): 159 mg/dL
- RALB ([…], time 7 day): 2.8 g/dL
- TBIL ([…], time 7 day): 0.028 mg/dL
- TC ([…], time 7 day): 74.4 mg/dL
- TG ([…], time 7 day): 131.2 mg/dL
- TP ([…], time 7 day): 5.8 g/dL
- gamma-GTP ([…], time 7 day): 0.8 IU/L
- A/G ([…], time 14 day): 0.9
- ALP ([…], time 14 day): 1246.2 IU/L
- ALT ([…], time 14 day): 41.4 IU/L
- AST ([…], time 14 day): 68.2 IU/L
- BUN ([…], time 14 day): 16.2 mg/dL
- CRE ([…], time 14 day): 0.2 mg/dL
- Ca ([…], time 14 day): 10.9 mg/dL
- Cl ([…], time 14 day): 105.2 meq/L
- DBIL ([…], time 14 day): 0.01 mg/dL
- GLC ([…], time 14 day): 189 mg/dL
- IP ([…], time 14 day): 6.2 mg/dL
- K ([…], time 14 day): 4.2 meq/L
- LDH ([…], time 14 day): 107.4 IU/L
- Na ([…], time 14 day): 143 meq/L
- PL ([…], time 14 day): 155.6 mg/dL
- RALB ([…], time 14 day): 2.8 g/dL
- TBIL ([…], time 14 day): 0.024 mg/dL
- TC ([…], time 14 day): 71.4 mg/dL
- TG ([…], time 14 day): 150.4 mg/dL
- TP ([…], time 14 day): 6.1 g/dL
- gamma-GTP ([…], time 14 day): 0.8 IU/L
- A/G ([…], time 28 day): 0.9
- ALP ([…], time 28 day): 945.4 IU/L
- ALT ([…], time 28 day): 29.6 IU/L
- AST ([…], time 28 day): 58.4 IU/L
- BUN ([…], time 28 day): 15.4 mg/dL
- CRE ([…], time 28 day): 0.3 mg/dL
- Ca ([…], time 28 day): 10.9 mg/dL
- Cl ([…], time 28 day): 105.8 meq/L
- DBIL ([…], time 28 day): 0.008 mg/dL
- GLC ([…], time 28 day): 185 mg/dL
- IP ([…], time 28 day): 6 mg/dL
- K ([…], time 28 day): 3.6 meq/L
- LDH ([…], time 28 day): 51.6 IU/L
- Na ([…], time 28 day): 144 meq/L
- PL ([…], time 28 day): 147.4 mg/dL
- RALB ([…], time 28 day): 2.9 g/dL
- TBIL ([…], time 28 day): 0.052 mg/dL
- TC ([…], time 28 day): 67.6 mg/dL
- TG ([…], time 28 day): 140.8 mg/dL
- TP ([…], time 28 day): 6.3 g/dL
- gamma-GTP ([…], time 28 day): 1.2 IU/L
